# Laboratory results from patent publication US5567694A, “17-Aryl and 17-heterocyclyl-5β,14β-androstane derivatives active on the cardiovascular system, processes for their preparation and pharmaceutical compositions containing same” (SIGMA-TAU Industrie Farmaceutiche Riunite S.p.A., priority 1992, dated 1996).
# Experiments:
# [1] = target: Na^+,K^+ -ATPase; assay type: binding; settings: ^3 H-ouabain displacement, purified Na^+,K^+ -ATPase receptor
# Text: (§1) To test the affinity for the receptor site of the Na^+,K^+ -ATPase and the inhibitory activity on the enzyme, the following tests were used:
# a) displacement of the specific ^3 H-ouabain binding from the Na^+,K^+ -ATPase receptor purified according to Jorghensen (Jorghensen P., BBA, 1974, 356, 36) and Erdmann ( Erdmann E. et al., Arzneim. Forsh., 1984, 34, 13 14);
# [2] = target: Na^+,K^+ -ATPase; assay type: biochemical; set-up: unit not given here; settings: hydrolysis of ^32 P-ATP, purified Na^+,K^+ -ATPase
# Text: as §1
# b) inhibition of the activity of the purified Na^+,K^+ -ATPase measured as % of hydrolysis of ^32 P-ATP in presence and in absence of the tested compound (Doucet A. et al., Am.
# [3] = system: spontaneous hypertensive rats of the Milan (MHS); assay: systolic blood pressure and heart rate in spontaneous hypertensive rats (MHS), indirect tail-cuff; assay type: in vivo, rat; settings: for SBP (systolic blood pressure) / HR (heart rate): MHS rats, n = 7, 20 mg/Kg/os daily for ten days in METHOCEL 0.5% w/v; for SBP (systolic blood pressure): controls 172 +/- 2.0; for HR (heart rate): controls 328 +/- 8.6
# Method: The ability of these compounds to lower blood pressure was tested by using animal models with genetic arterial hypertension, in particular, spontaneous hypertensive rats of the Milan (MHS) (Bianchi G., Ferrari P., Barber B., The Milan Hypertensive strain. In Handbook of hypertension. Vol.4: Experimental and genetic models of hypertension. Ed. W. de jong-Elsevier Science Publishers B.V.,1984: 328-349).
# The procedure adopted to test the antihypertensive activity of the compounds on the above mentioned model was the following:
# systolic blood pressure (SBP) and heart rate (HR) were measured by an indirect tail-cuff method in three-month old hypertensive rats (MHS) before beginning the treatment (basal values). The rats were then subdivided in two groups of at least 7 animals each, one receiving the compound the other, the control group, receiving only the vehicle. The compound, suspended in METHOCEL 0.5% (w/v), was administered daily by mouth, for ten days. SBP and HR were measured daily 6 and 24 hours after the treatment. At the end of the ten day treatment period, a washout period of at least two days was carried out, in order to check for how long the SBP was mantained low or the basal values were re-established.
Compound,Binding ^3 H-Ouab. Displacement log IC50 [1],Inhibitory Activity log IC50 [2],SBP (systolic blood pressure) [3],HR (heart rate) [3],antihypertensive action ([3]; statement in words)
"CN(C)c1ccc([C@@]2(O)CC[C@]3(O)[C@@H]4CC[C@@H]5C[C@@H](O)CC[C@]5(C)[C@H]4CC[C@]23C)cc1 [Comp. I-bf, 17β-(4-(N,N-Dimethylaminophenyl))-5β-androstane-3β,14β,17α-triol]",5.7,4.6,–,–,–
"CN(C)CCCO[C@H]1CC[C@@]2(C)[C@H](CC[C@@H]3[C@@H]2CC[C@]2(C)[C@@](O)(c4ccccc4)CC[C@]32O)C1 [Comp. I-ae, 3β-(3-Dimethylaminopropoxy)-17β-phenyl-5β-androstane-14β,17α-diol]",5.9,4.7,–,–,–
"C[C@]12CC[C@H](OCCCN)C[C@H]1CC[C@@H]1[C@@H]2CC[C@]2(C)[C@@](O)(c3ccccc3)CC[C@]12O [Comp. I-ag, 3β-(3-Aminopropoxy)-17β-phenyl-5β-androstane-14β,17α-diol]",5.9,4.6,157 +/- 4.2 mm Hg,330 +/- 9.8 beats/min.,–
"CCN(CC)CCO[C@H]1CC[C@@]2(C)[C@H](CC[C@@H]3[C@@H]2CC[C@]2(C)[C@@](O)(c4ccc(OC)cc4)CC[C@]32O)C1 [Comp. I-av, 3β-(2-Diethylaminoethory)-17β-(4-methoxyphenyl)-5β-androstane-14β,17α-diol]",6.0,4.8,–,–,–
"C[C@]12CCC(=NNC(=N)N)C[C@H]1CC[C@@H]1[C@@H]2CC[C@]2(C)[C@@](O)(c3ccccc3)CC[C@]12O [Comp. I-ar, 3-Guanidinoimino-17β-phenyl-5β-androstane-14β,17α-diol]",5.8,4.6,–,–,–
"C[C@]12CC[C@H](OCCN3CCCC3)C[C@H]1CC[C@@H]1[C@@H]2CC[C@]2(C)[C@@](OCCN3CCCC3)(c3ccccc3)CC[C@]12O [Comp. I-ai, 3β,17α-Bis(2-(1-pyrrolidinyl)ethoxy)-17β-phenyl-5β-androstan-14β-ol]",5.0,–,–,–,–
"C[C@]12CC[C@H](O)C[C@H]1CC[C@@H]1[C@@H]2CC[C@]2(C)[C@@](O)(c3ccc(O)cc3)CC[C@]12O [Comp. I-ay, 17β-(4-Hydroxyphenyl)-5β-androstane-3β,14β,17α-triol]",5.6,4.5,–,–,–
"C[C@]12CC[C@H](O)C[C@H]1CC[C@@H]1[C@@H]2CC[C@]2(C)[C@@](O)(c3cccnc3)CC[C@]12O [Comp. 1-bb, 17β-(3-Pyridyl)-5β-androstane-3β,14β,17α-triol]",5.4,4.3,154 +/- 3.0 mm Hg,339 +/- 6.8 beats/min.,–
"C[C@]12CC[C@H](O)C[C@H]1CC[C@@H]1[C@@H]2CC[C@]2(C)[C@@](O)(c3ccsc3)CC[C@]12O [Comp. 1-ba, 17β-(3-Thienyl)-5β-androstane-3β,14β,17α-triol]",5.7,4.5,–,–,–
"C[C@]12CC[C@H](O)C[C@H]1CC[C@@H]1[C@@H]2CC[C@]2(C)[C@@](O)(C3=CC(=O)OC3)CC[C@]12O [Ref. comp., 3β,14β,17α-trihydroxy-5β-card-20(22)-enolide, reference compound]",5.9,5.3,174 +/- 2.1 mm Hg,340 +/- 10.2 beats/min.,do not show antihypertensive action
"C[C@]12CC[C@H](OCC(O)CO)C[C@H]1CC[C@@H]1[C@@H]2CC[C@]2(C)[C@@](O)(c3ccccc3)CC[C@]12O (stereo partly drawn) [Comp. I-ao, 3β-((2RS)-2,3-Dihydroxypropoxy)-17β-phenyl-5β-androstane-14β,17α-diol]",5.5,4.2,–,–,–
"C[C@]12CC[C@H](OCC(N)CN)C[C@H]1CC[C@@H]1[C@@H]2CC[C@]2(C)[C@@](O)(c3ccccc3)CC[C@]12O (stereo partly drawn) [Comp. I-ap, 3β-((2RS)-2,3-Diaminopropoxy)-17β-phenyl-5β-androstane-14β,17α-diol]",5.8,4.6,–,–,–
C[C@]12CC[C@H](SCCCN)C[C@H]1CC[C@@H]1[C@@H]2CC[C@]2(C)[C@@](O)(c3ccccc3)CC[C@]12O [Comp. I-bj],5.7,4.6,–,–,–
"C[C@]12CC[C@H](OCCO)C[C@H]1CC[C@@H]1[C@@H]2CC[C@]2(C)[C@@](O)(c3ccccc3)CC[C@]12O [Comp. I-ad, 3β-(2-Hydroxyethoxy)-17β-phenyl-5β-androstane-14β,17α-diol]",5.2,4.0,–,–,–
"COc1ccc([C@@]2(O)CC[C@]3(O)[C@@H]4CC[C@@H]5C[C@@H](O)CC[C@]5(C)[C@H]4CC[C@]23C)cc1 [Comp. I-au, 17β-(4-Methoxyphenyl)-5β-androstane-3β,14β,17α-triol]",5.6,4.5,156 +/- 4.1 mm Hg,335 +/- 10.5 beats/min.,–
"CNCCO[C@H]1CC[C@@]2(C)[C@H](CC[C@@H]3[C@@H]2CC[C@]2(C)[C@@](O)(c4ccccc4)CC[C@]32O)C1 [Comp. I-am, 3β-(2-Methylaminoethoxy)-17β-phenyl-5β-androstane-14β,17α-diol]",5.9,4.8,–,–,–
"Cc1ncc([C@@]2(O)CC[C@]3(O)[C@@H]4CC[C@@H]5C[C@@H](O)CC[C@]5(C)[C@H]4CC[C@]23C)n1C [Comp. I-be, 17β-(1,2-Dimethyl-5-imidazolyl)-5β-androstane-3β,14β,17α-triol]",5.4,–,–,–,–
"C[C@]12CC[C@H](O)C[C@H]1CC[C@@H]1[C@@H]2CC[C@]2(C)[C@@](O)(c3ccccc3)CC[C@]12O [Comp. I-ac, 17β-Phenyl-5β-androstane-3β,14β,17α-triol]",5.4,4.1,160 +/- 4.5 mm Hg,331 +/- 8.5 beats/min.,–
